Test results taken from patent US20100016401A1, “3-AZA-BICYCLO[3.1.0]HEXANE DERIVATIVES” (Actelion Phamaceuticals Ltd., priority 2006, published 2010).

Key:
human orexin-1 receptor = molecular target: T1, human orexin-1 receptor (Homo sapiens, UniProt O43613); assay: Intracellular calcium measurements (FLIPR), orexin receptor antagonistic activity, OX1; assay type: cell-based; conditions: CHO cells expressing human orexin-1 receptor, 10 nM orexin-A as agonist
T1 construct: expressed in transfected cells; host or cells: CHO (Chinese hamster ovary) cells, grown under G418 selection
T1 sequence (O43613 1-425): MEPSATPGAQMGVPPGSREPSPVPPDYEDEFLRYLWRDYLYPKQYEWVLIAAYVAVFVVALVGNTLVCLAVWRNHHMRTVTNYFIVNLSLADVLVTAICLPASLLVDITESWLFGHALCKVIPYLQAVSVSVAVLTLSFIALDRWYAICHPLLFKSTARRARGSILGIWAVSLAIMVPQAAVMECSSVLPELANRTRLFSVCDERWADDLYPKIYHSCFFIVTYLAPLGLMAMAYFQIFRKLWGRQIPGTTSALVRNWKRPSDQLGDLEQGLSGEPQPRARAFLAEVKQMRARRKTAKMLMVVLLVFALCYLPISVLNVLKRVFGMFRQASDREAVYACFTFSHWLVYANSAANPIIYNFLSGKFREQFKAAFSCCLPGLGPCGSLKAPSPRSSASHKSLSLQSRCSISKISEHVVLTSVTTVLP
Procedure: (§1) The orexin receptor antagonistic activity of the compounds of formula (I) is determined in accordance with the following experimental method.
(§2) Intracellular Calcium Measurements:
(§3) Chinese hamster ovary (CHO) cells expressing the human orexin-1 receptor and the human orexin-2 receptor, respectively, are grown in culture medium (Ham F-12 with L-Glutamine) containing 300 μg/ml G418, 100 U/ml penicillin, 100 μg/ml streptomycin and 10% inactivated fetal calf serum (FCS). The cells are seeded at 80,000 cells/well into 96-well black clear bottom sterile plates (Costar) which have been precoated with 1% gelatine in Hanks' Balanced Salt Solution (HBSS). All reagents are from Gibco BRL. The seeded plates are incubated overnight at 37° C. in 5% CO2.
(§4) Human orexin-A as an agonist is prepared as 1 mM stock solution in MeOH: water (1:1), diluted in HBSS containing 0.1% bovine serum albumin (BSA) and 2 mM HEPES for use in the assay at a final concentration of 10 nM.
(§5) Antagonists are prepared as 10 mM stock solution in DMSO, then diluted in 96-well plates, first in DMSO, then in HBSS containing 0.1% bovine serum albumin (BSA) and 2 mM HEPES.
(§6) On the day of the assay, 100 μl of loading medium (HBSS containing 1% FCS, 2 mM HEPES, 5 mM probenecid (Sigma) and 3 μM of the fluorescent calcium indicator fluo-3 AM (1 mM stock solution in DMSO with 10% pluronic acid) (Molecular Probes) is added to each well.
(§7) The 96-well plates are incubated for 60 min at 37° C. in 5% CO2. The loading solution is then aspirated and cells are washed 3 times with 200 μl HBSS containing 2.5 mM probenecid, 0.1% BSA, 2 mM HEPES. 100 μl of that same buffer is left in each well.
(§8) Within the Fluorescent Imaging Plate Reader (FLIPR, Molecular Devices), antagonists are added to the plate in a volume of 50 μl, incubated for 20 min and finally 100 μl of agonist is added. Fluorescence is measured for each well at 1 second intervals, and the height of each fluorescence peak is compared to the height of the fluorescence peak induced by 10 nM orexin-A with buffer in place of antagonist.

human orexin-2 receptor = molecular target: T2, human orexin-2 receptor (Homo sapiens, UniProt O43614); assay: Intracellular calcium measurements (FLIPR), orexin receptor antagonistic activity, OX2; assay type: cell-based; conditions: CHO cells expressing human orexin-2 receptor, 10 nM orexin-A as agonist
T2 construct: expressed in transfected cells; host or cells: CHO (Chinese hamster ovary) cells, grown under G418 selection
T2 sequence (O43614 1-444): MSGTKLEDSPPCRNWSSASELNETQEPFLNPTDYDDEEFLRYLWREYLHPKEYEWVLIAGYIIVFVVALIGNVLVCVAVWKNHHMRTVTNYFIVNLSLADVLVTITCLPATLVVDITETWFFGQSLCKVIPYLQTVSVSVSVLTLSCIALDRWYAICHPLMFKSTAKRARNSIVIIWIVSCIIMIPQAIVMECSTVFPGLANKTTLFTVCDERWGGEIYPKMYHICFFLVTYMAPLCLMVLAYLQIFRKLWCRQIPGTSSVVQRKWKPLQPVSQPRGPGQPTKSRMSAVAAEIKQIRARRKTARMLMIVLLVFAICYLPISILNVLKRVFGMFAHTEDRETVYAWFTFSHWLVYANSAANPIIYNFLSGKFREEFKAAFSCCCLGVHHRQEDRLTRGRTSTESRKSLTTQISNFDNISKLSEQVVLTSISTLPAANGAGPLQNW
Procedure: as §1, §2, §3, §4, §5, §6, §7, §8

**Q.** Which results are given for `Cc1cccc(-c2sc(C)nc2C(=O)N2C[C@H]3C[C@H]3[C@H]2CNC(=O)c2ccc(F)cc2Cl)c1` (relative stereo) [Example 141, 2-Chloro-4-fluoro-N-[(1R*,2S*,5S*)-3-(2-methyl-5-m-tolyl-thiazole-4-carbonyl)-3-aza-bicyclo[3.1.0]hex-2-ylmethyl]-benzamide]?
**A.** IC50 (human orexin-1 receptor): 76 nM; IC50 (human orexin-2 receptor): 14 nM

**Q.** Which IC50 (human orexin-1 receptor) does the source give for `Cc1cccc(-c2sc(C)nc2C(=O)N2C[C@H]3C[C@H]3[C@H]2CNC(=O)c2cccc(C)c2Cl)c1` (relative stereo) [Example 143, 2-Chloro-3-methyl-N-[(1R*,2S*,5S*)-3-(2-methyl-5-m-tolyl-thiazole-4-carbonyl)-3-aza-bicyclo[3.1.0]hex-2-ylmethyl]-benzamide] here?
**A.** 507 nM

**Q.** And the IC50 (human orexin-2 receptor)?
**A.** 17 nM

**Q.** Which IC50 (human orexin-1 receptor) does the source give for `Cc1cccc(-c2sc(C)nc2C(=O)N2C[C@H]3C[C@H]3[C@H]2CNC(=O)c2ccc(C)c(C(F)(F)F)c2)c1` (relative stereo) [Example 146, 4-Methyl-N-[(1R*,2S*,5S*)-3-(2-methyl-5-m-tolyl-thiazole-4-carbonyl)-3-aza-bicyclo[3.1.0]hex-2-ylmethyl]-3-trifluoromethyl-benzamide] here?
**A.** 54 nM

**Q.** What about the IC50 (human orexin-2 receptor) of the same compound?
**A.** 55 nM

**Q.** `Cc1cccc(-c2sc(C)nc2C(=O)N2C[C@H]3C[C@H]3[C@H]2CNC(=O)c2ccccc2N2CCOCC2)c1` (relative stereo) [Example 154, N-[(1R*,2S*,5S*)-3-(2-Methyl-5-m-tolyl-thiazole-4-carbonyl)-3-aza-bicyclo[3.1.0]hex-2-ylmethyl]-2-morpholin-4-yl-benzamide] was tested. Which IC50 (human orexin-1 receptor) did it give?
**A.** 201 nM

**Q.** What about the IC50 (human orexin-2 receptor) of the same compound?
**A.** 237 nM

**Q.** With `Cc1cccc(-c2sc(C)nc2C(=O)N2C[C@H]3C[C@H]3[C@H]2CNC(=O)c2cccc3c2C=CCO3)c1` (relative stereo) [Example 178, 2H-Chromene-5-carboxylic acid [(1R*,2S*,5S*)-3-(2-methyl-5-m-tolyl-thiazole-4-carbonyl)-3-aza-bicyclo[3.1.0]hex-2-ylmethyl]-amide] as the compound, how does the IC50 (human orexin-1 receptor) read?
**A.** 43 nM

**Q.** What about the IC50 (human orexin-2 receptor) of the same compound?
**A.** 33 nM

**Q.** Which IC50 (human orexin-1 receptor) does the source give for `Cc1cccc(-c2sc(C)nc2C(=O)N2C[C@H]3C[C@H]3[C@H]2CNC(=O)c2cccc3c2OCCN3C)c1` (relative stereo) [Example 179, 4-Methyl-3,4-dihydro-2H-benzo[1,4]oxazine-8-carboxylic acid [(1R*,2S*,5S*)-3-(2-methyl-5-m-tolyl-thiazole-4-carbonyl)-3-aza-bicyclo[3.1.0]hex-2-ylmethyl]-amide] here?
**A.** 237 nM

**Q.** What about the IC50 (human orexin-2 receptor) of the same compound?
**A.** 76 nM

**Q.** With `Cc1cccc(-c2sc(C)nc2C(=O)N2C[C@H]3C[C@H]3[C@H]2CNC(=O)c2cccc3c2NC(=O)CO3)c1` (relative stereo) [Example 181, 3-Oxo-3,4-dihydro-2H-benzo[1,4]oxazine-5-carboxylic acid [(1R*,2S*,5S*)-3-(2-methyl-5-m-tolyl-thiazole-4-carbonyl)-3-aza-bicyclo[3.1.0]hex-2-ylmethyl]-amide] as the compound, how does the IC50 (human orexin-1 receptor) read?
**A.** 90 nM

**Q.** And the IC50 (human orexin-2 receptor)?
**A.** 154 nM

**Q.** How did the IC50 (human orexin-1 receptor) turn out when `Cc1cccc(-c2sc(C)nc2C(=O)N2C[C@H]3C[C@H]3[C@H]2CNC(=O)c2cccc3c2CCCO3)c1` (relative stereo) [Example 182, Chroman-5-carboxylic acid [(1R*,2S*,5S*)-3-(2-methyl-5-m-tolyl-thiazole-4-carbonyl)-3-aza-bicyclo[3.1.0]hex-2-ylmethyl]-amide] was run?
**A.** 241 nM

**Q.** And the IC50 (human orexin-2 receptor)?
**A.** 196 nM

**Q.** Which results are given for `Cc1nc(C(=O)N2C[C@H]3C[C@H]3[C@H]2CNC(=O)c2cnc3ccccn23)c(-c2cccc(Cl)c2)s1` (relative stereo) [Example 203, Imidazo[1,2-a]pyridine-3-carboxylic acid {(1R*,2S*,5S*)-3-[5-(3-chloro-phenyl)-2-methyl-thiazole-4-carbonyl]-3-aza-bicyclo[3.1.0]hex-2-ylmethyl}-amide]?
**A.** IC50 (human orexin-1 receptor): 42 nM; IC50 (human orexin-2 receptor): 92 nM
